Patent US10458996B1, “Methods for determining clinical response to TNF-alpha and/or JAK inhibitors in subjects with inflammatory diseases” (Beth Israel Deaconess Medical Center, Inc., priority 2016, dated 2019)

System: biopsy samples from patients with IBD
Experiment: Cytokine profiles of patient biopsy cultures in response to treatment with various agents (Example 2)
Format: cell-based, human
Method: From each patient, intestinal mucosal biopsies were minced into several pieces and distributed in 8 wells of a 96-well plate in 250 μl of Dulbecco's Modified Eagle Medium (DMEM) supplemented with 10% FBS and antibiotic-antimycotic (Life Technologies, CA). Half of the cultures were treated with infliximab (REMICADE®; 0.5 mg/ml; Janssen Biotech, Inc, NJ) and the plate was incubated at 37° C. in a humidified chamber of 95% O2/5% CO2 for 18 hours. Culture supernatants were collected, filtered and stored at −80° C. […] Signal detection and analysis was performed by MAGPIX® (Luminex Corporation, TX).
[…] with 0.5 mg/ml infliximab (an anti-TNFα antibody; therapeutic agent), 100 μM tofacitinib (a Janus kinase (JAK) inhibitor) and an experimental drug (at 10 μM concentration) in accordance with the protocol described above. Following treatment, biopsy samples were obtained and analyzed for cytokine profiles using […].
Additional similar experiments were conducted for different patients using the same or different therapeutic agents, and the results are shown in FIG. 5D-5H.

Compound	cytokines with levels significantly elevated (100 μM, non-responder group (FIG. 5B))	cytokines with attenuation in levels (100 μM, non-responders (FIG. 5B))	cytokines with levels significantly attenuated (100 μM, responders (FIG. 5B))	changes in cytokine profile (patient ID 13-394 (FIG. 5E))	ex vivo response of patient (patient ID 13-394 (FIG. 5E))	changes in cytokine profile (patient ID 13-562 (FIG. 5F))	ex vivo response of patient (patient ID 13-562 (FIG. 5F))
C[C@@H]1CCN(C(=O)CC#N)C[C@@H]1N(C)c1ncnc2[nH]ccc12 [tofacitinib]	IL-12p40, IL-12p70, IL-13, IL-17A, IL-2, IL-4, IL-5, and IL-7	MCP-1 and TNFα	IL-6, IL-8, MCP-1, and TNFα	three cytokine expression down-regulation	ex vivo responder	–	–
vedolizumab	–	–	–	–	–	only one cytokine expression down-regulation and four cytokine expression up-regulation	ex vivo non-responder
